From PubChem BioAssay (NCI) come the findings set out here.

What all share (test): NCI tumour cell line growth inhibition, 48 h
In assay [1] the test system is SW-620 colon.
The test system of assay [2] is NCI-H226 lung.
In assay [3] the test system is UO-31 renal.
The subject of assay [4] is K-562 leukemia.
In assay [5] the test system is IGROV1 ovarian.
Assay [6] deals with EKVX NSCLC.
Assay [7] deals with T-47D breast.
The subject of assay [8] is MALME-3M melanoma.
In assay [9] the test system is HL-60(TB) leukemia.
Assay [10] has as its system HS 578T breast.

Structures are written as SMILES. Several values for one entry are separate records, joined by “and”; a condition that tells them apart may be missing. Identical values can stand only once.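 Cells were grown in 96-well plates and exposed to each compound for 48 hours at five concentrations; endpoints were interpolated linearly between bracketing concentrations, or set to the highest concentration if not reached. GI50 marks 50% less growth. The concentration for full growth arrest is given as TGI.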 A value given as a limit tells only on which side of the number the result lay.

Take `COc1cc(O)ccc1C(=S)SC`: the TGI in [1] is over 100 µM; in assay [2], 76.9 µM; in assay [3], over 100 µM; in assay [4] it was over 100 µM; in assay [5], over 100 µM; in [6], 46.3 µM. In addition, the TGI is over 100 µM in assay [7], over 100 µM in assay [8], over 100 µM in assay [9] and 98.5 µM in [10].

In the case of `Oc1ccc(Cl)cc1C=Nc1cnc2ccccc2c1`, the TGI in [1] was over 100 µM; in [2] it was over 100 µM; in [3], over 100 µM; in assay [4], over 100 µM; in [5], over 100 µM; in [6] it was over 86 µM. For the same molecule, the TGI in [7] was 51.3 µM; in assay [8], over 100 µM; in assay [9] it was 34.9 µM; in [10], over 100 µM.

As for `CCCCNC(c1ccc(Cl)cc1)C(O)c1ccc(Cl)cc1` (configuration not stated), the GI50 in assay [1] was 1.78 µM; in assay [2], 6.58 µM; in assay [3], 1.55 µM; in assay [4], 2.11 µM; in assay [5] it was 2.41 µM; in [6], 2.76 µM. The GI50 is 1.67 µM in assay [7], 1.52 µM in assay [8], 1.02 µM in assay [9] and 4.98 µM in [10]. Further, the TGI came to 3.93 µM in assay [1]; 25.1 µM in assay [2]; 10.2 µM in [3]; 5.68 µM in assay [4]; 12.4 µM in assay [5]; 14.7 µM in assay [6]. Further, the TGI in assay [7] amounted to 4.52 µM; in assay [8], 3.08 µM; in [9], 2.93 µM; in assay [10], 26.9 µM.

Turning to `O=C1NC(O)c2cc3ccccc3cc2O1` (configuration not stated), the TGI in assay [1], in assay [2], in assay [3], in assay [4], in [5] and in assay [6] was over 100 µM throughout. Moreover, the TGI in assay [7], in assay [8], in assay [9] and in assay [10] was over 100 µM throughout.

With `COc1ccc(-n2c(=S)sc3c(Cl)nc(C)nc32)c(OC)c1`, the GI50 is 2.57 µM in [1]; 3.22 µM in assay [2]; 3.62 µM in assay [3]; 1.19 µM in [4]; 1.93 µM in [5]; 4.55 µM in assay [6]. Further, the GI50 is 6.42 µM in [7], 2.23 µM in assay [8], 1.43 µM in assay [9] and 2.66 µM in assay [10]. The TGI was 5.44 µM in [1]; 12 µM in assay [2]; 15.4 µM in assay [3]; 3.79 µM in assay [4]; 3.99 µM in assay [5]; 17 µM in assay [6]. Moreover, the TGI in assay [7] came to 21.6 µM; in assay [8], 6.23 µM; in assay [9], 5.83 µM; in [10], 7.71 µM.

As for `[N-]=[N+]=CC(=O)CCC(N)C(=O)O` (configuration not stated), the GI50 in assay [1] was 12.6 µM; in assay [3], 8.31 µM; in [4] it was 3.27 µM; in assay [5] it was 3.51 µM; in assay [6], 3.47 µM; in assay [7], 16.2 µM. Besides, the values for the GI50 in assay [8], in assay [9] and in [10] were 7.27 µM, 2.3 µM and 42.2 µM, respectively. The TGI in assay [1] was over 250 µM; in assay [2] it was over 250 µM; in assay [3], 219 µM; in assay [4], over 250 µM; in assay [5] it was 43 µM and > 134 µM; in assay [6] it was over 141 µM. In addition, the TGI in [7] is over 250 µM; in assay [8], over 250 µM; in assay [9] it was 208 µM; in assay [10] it was over 250 µM.

On to `C=C(Br)CN=CN(C)C`, for which the TGI in assay [2], in assay [3], in assay [4], in assay [5], in [6] and in [7] was over 100 µM in each case. Also, the TGI in [8], in assay [9] and in assay [10] was over 100 µM each time.

`C[C@@H]1C[C@@H]([C@H](O)CC2CC(=O)NC(=O)C2)C(=O)[C@@H](C)C1`: the GI50 in assay [1] is 0.219 µM; in assay [2], 0.326 µM; in assay [3] it was 0.23 µM; in assay [4] it was 0.165 µM; in assay [5], 0.388 µM; in assay [6], 0.341 µM. Besides, the GI50 is 0.231 µM in assay [7], 0.235 µM in [8], 0.202 µM in [9] and 0.488 µM in [10]. The TGI was 1.23 µM in assay [1]; 7.26 µM and 4.86 µM in assay [2]; 4.63 µM and 0.675 µM in assay [3]; 11.9 µM and 2.93 µM in assay [4]; 15 µM and 3.15 µM in [5]; 4.45 µM in assay [6]. For the same molecule, the TGI in [7] was 5.07 µM; in assay [8] it was 4.7 µM and 3.5 µM; in assay [9] it was 2.14 µM and 0.43 µM.

In the case of `COc1cc(/C=N/NC(=O)c2cnn3c2NC(c2ccccc2)C3)ccc1OC1CCCC1` (configuration not stated), the GI50 in [1] is 0.468 µM; in assay [2] it was 1.64 µM; in assay [3] it was 1.22 µM; in assay [4] it was 0.348 µM; in assay [5], 0.723 µM; in assay [6] it was 1.51 µM. In addition, the GI50 in assay [7] is 0.704 µM; in [8], 1.02 µM; in [9], 0.384 µM; in assay [10] it was 0.705 µM. Also, the TGI in [1] was 2.38 µM; in assay [2] it was 6.12 µM; in assay [3], 6.59 µM; in assay [4], over 30.4 µM; in [5], 9.4 µM; in assay [6], 14 µM. The TGI in [7] turned out to be 10.4 µM; in assay [8], 4.28 µM; in assay [9], 3.93 µM; in assay [10] it was 4.14 µM.
